Some results are limits rather than exact numbers.

Data set [1] in a line: In vivo PK experiment: oral SQV with or without oral RESV. Further details: species or system rat. The following applies: rats.
The conditions of data set [2]: clinical practice; cited from earlier work.
For data set [3] the following is noted: low solubility and high permeability; cited from earlier work.

As for `CC(C)(C)NC(=O)[C@@H]1C[C@@H]2CCCC[C@@H]2CN1C[C@@H](O)[C@H](Cc1ccccc1)NC(=O)[C@H](CC(N)=O)NC(=O)c1ccc2ccccc2n1` [SQV, saquinavir], the “Time of first peak in plasma levels” value in data set [1] (SQV 30 mg/kg oral, RESV (20 mg/kg) treatment group) is listed as around 0.25 h; in data set [1] (SQV 30 mg/kg oral, control group), ~ 0.5 h. For the same compound, in data set [1] (SQV 30 mg/kg oral, both groups (with or without RESV 20 mg/kg)), the “Time of second peak in plasma levels” value is recorded as ~ 4 h. Moreover, the “Coefficient of variation (CV) of oral bioavailability” value in data set [2] is listed as above 100%. The Oral bioavailability in data set [2] is reported as ~ 4%. Besides, the “Biopharmaceutics Classification System class” value in data set [3] was “class II”.

On to `Oc1ccc(/C=C/c2cc(O)cc(O)c2)cc1` [RESV, resveratrol], for which the “Effect of coadministration on Cmax of SQV” value in data set [1] (RESV 20 mg/kg oral with SQV 30 mg/kg oral, P>0.05) was “not significantly affected”.

The values above are taken from paper PMC5117956 (Drug Design, Development and Therapy, 2016).
